Measured values published in patent US20030143729A1 (Synaptic Pharmaceutical Corporation, priority 1992, published 2003).
Where two headings read alike, the source gives them in different places.

How the values were obtained:
neuronal cultures = test: [3H]GABA uptake in primary neuronal cell cultures; format: cell-based, rat
Description: Brains were removed aseptically from E17 embryonic Sprague-Dawley rats brains, carefully dissected free of meninges, and kept on ice. A single-cell suspension was made by mincing the brains, followed by trituration through a serological pipette. […] On day three cytosine β-D-arabinofuransoside (3 μM) was added to control the proliferation of non-neuronal cells. The cultures were used for transport assay approximately one week after plating.

GAT-2 = target: T1, GAT-2 (Rattus norvegicus, UniProt P31646); test: [3H]GABA uptake by COS cells transfected with GAT-2 (rB14b); format: cell-based
T1 construct: randomly primed GAT-2 full-length or GAT-3 truncated or full-length cDNA clones; expressed in transfected cells; host or cells: COS cells, transient, plasmid pEVJB-rB14b
T1 sequence (P31646 1-602): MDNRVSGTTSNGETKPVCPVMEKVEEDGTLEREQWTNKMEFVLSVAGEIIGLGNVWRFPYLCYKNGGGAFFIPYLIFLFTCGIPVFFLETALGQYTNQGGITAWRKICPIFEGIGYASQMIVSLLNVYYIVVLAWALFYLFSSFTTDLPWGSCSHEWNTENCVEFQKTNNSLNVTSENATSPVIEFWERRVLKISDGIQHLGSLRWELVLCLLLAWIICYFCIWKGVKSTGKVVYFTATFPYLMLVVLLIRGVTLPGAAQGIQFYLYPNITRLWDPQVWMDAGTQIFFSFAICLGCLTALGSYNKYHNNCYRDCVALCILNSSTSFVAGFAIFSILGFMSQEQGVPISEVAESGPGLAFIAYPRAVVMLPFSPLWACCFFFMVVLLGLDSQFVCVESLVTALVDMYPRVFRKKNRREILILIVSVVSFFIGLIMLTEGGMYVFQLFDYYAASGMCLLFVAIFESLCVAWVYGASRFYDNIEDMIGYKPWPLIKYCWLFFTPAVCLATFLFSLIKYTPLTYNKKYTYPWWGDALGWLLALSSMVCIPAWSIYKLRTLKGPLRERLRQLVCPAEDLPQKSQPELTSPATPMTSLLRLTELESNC

rat GAT-3 = target: T2, rat GAT-3 (Rattus norvegicus, UniProt P31647)
T2 sequence (P31647 54-627 limits assumed): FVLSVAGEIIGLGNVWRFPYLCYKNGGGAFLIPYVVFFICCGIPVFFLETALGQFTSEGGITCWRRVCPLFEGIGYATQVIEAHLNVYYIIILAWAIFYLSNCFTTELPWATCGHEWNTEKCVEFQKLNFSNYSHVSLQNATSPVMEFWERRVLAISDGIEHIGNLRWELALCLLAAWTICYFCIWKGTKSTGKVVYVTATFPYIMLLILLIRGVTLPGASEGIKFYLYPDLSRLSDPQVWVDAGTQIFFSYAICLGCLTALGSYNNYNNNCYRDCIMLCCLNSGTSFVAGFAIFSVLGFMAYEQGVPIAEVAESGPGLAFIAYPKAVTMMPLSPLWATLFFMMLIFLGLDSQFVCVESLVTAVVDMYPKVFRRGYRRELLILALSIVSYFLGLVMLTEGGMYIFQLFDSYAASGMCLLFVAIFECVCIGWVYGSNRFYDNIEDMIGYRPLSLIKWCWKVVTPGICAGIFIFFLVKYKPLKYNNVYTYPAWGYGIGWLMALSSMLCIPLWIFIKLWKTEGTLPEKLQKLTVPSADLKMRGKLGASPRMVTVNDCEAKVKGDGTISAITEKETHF
Description: (§3) Cells grown in 24-well plates were washed 3× with HEPES-buffered saline (HBS, in mM: NaCl, 150; HEPES, 20; CaCl2, 1; glucose, 10; KCl, 5; MgCl2, 1; pH 7.4) and allowed to equilibrate on a 37° C. slide warmer. After 10 minutes the medium was removed and unlabeled drugs in HBS were added (450 μl/well). […] Plates were incubated at 37° C. for 10 minutes, then washed rapidly 3× with ice-cold HBS, using a 24-position plate washer (Brandel, Gaithersburg, Mass.; model PW-12). Cells were solubilized with 0.05% sodium deoxycholate/0.1N NaOH (0.25 ml/well), an aliquot neutralized with 1N HCl, and radioactivity was determined by scintillation counting. Protein was quantified in an aliquot of the solubilized cells using a BIO-RAD protein assay kit, according to the manufacturer's directions.
(§4) Lipophilic inhibitors were dissolved in DMSO.
(§5) Data Analysis: Competition curves were conducted in duplicate, using 10 concentrations of unlabeled drug.
COS cells grown in 75 cm^2 or 150 cm^2 flasks in DMEM with 10% bovine calf serum, 100 U/ml penicillin G, and 100 μg/ml streptomycin sulfate (37° C., 5% CO2) were transfected using DEAE-dextran. On the day following transfection the cells were split into 24-well assay plates coated with poly-D-lysine (10 μg/ml), and transport was measured 24 hours later.
After 10 minutes the medium was removed and unlabeled drugs in HBS were added (450 μl/well). […] Plates were incubated at 37° C. for 10 minutes, then washed rapidly 3× with ice-cold HBS, using a 24-position plate washer (Brandel, Gaithersburg, Mass.; model PW-12). Cells were solubilized with 0.05% sodium deoxycholate/0.1N NaOH (0.25 ml/well), an aliquot neutralized with 1N HCl, and radioactivity was determined by scintillation counting. Protein was quantified in an aliquot of the solubilized cells using a BIO-RAD protein assay kit, according to the manufacturer's directions.

rGAT-2 = target: T3, rGAT-2 (Rattus norvegicus, UniProt P31646); test: [3H]GABA uptake, full competition curves at cloned rGAT-2 (transient transfection, COS cells); format: cell-based
T3 construct: randomly primed GAT-2 full-length or GAT-3 truncated or full-length cDNA clones; expressed in transfected cells; host or cells: COS cells, transient, plasmid pEVJB-rB14b
T3 sequence (P31646 1-602): T1 sequence (P31646 1-602)

Type 1 astrocytes = test: [3H]GABA uptake in Type 1 astrocyte cultures; format: cell-based, rat; details: read-out: IC50 for inhibition of [3H]GABA uptake, Type 1 astrocytes
Description: (§1) Preparation of primary rat astrocyte cell cultures: Primary glial cultures were established from newborn Sprague-Dawley rat brains. Brains minus cerebella were removed aseptically and carefully dissected free of meninges. […] The cells were dissociated by trituration through a serological pipette. Separate procedures were then used for the preparation of Type-1 and O-2A/Type-2 astrocyte cultures, as will now be described.
(§2) For the preparation of Type-1 astrocyte cultures, cells were plated onto uncoated 75 cm^2 flasks at low density (1 brain per 10 flasks, or approximately 8×10^4 cells/cm^2). The medium was changed the following day and twice a week thereafter. […] Cultures highly enriched in O-2A/Type-2 cells were prepared from mixed astrocyte cultures which consisted of a monolayer of Type 1 cells upon which rested large numbers of O-2A/Type 2 cells. […] The same brain cell suspensions as described above were plated at high density (1 brain per 75 cm^2 flask, or approximately 8×10^5 cells/cm^2) into flasks coated with poly-D-lysine (10 μg/ml). After 24 hours the medium was replaced and the cultures were subsequently fed twice a week. […] Complete medium was added to the flasks and the cell suspension was removed gently, care being taken to not disrupt the underlying Type 1 astrocyte monolayer. The cells were pelleted at low speed, resuspended in complete medium, and added to 24-well plates coated with poly-D-lysine (10 μg/ml). […] No attempt was made to distinguish or separate O-2A precursors from the more differentiated Type 2 astrocytes.

O-2A/Type 2 astrocytes = test: [3H]GABA uptake in O-2A/Type 2 astrocyte cultures; format: cell-based, rat
Description: as §1, §2

rat GAT-2 = target: T4, rat GAT-2 (Rattus norvegicus, UniProt P31646)
T4 sequence (P31646 1-602): T1 sequence (P31646 1-602)
Description: Cells were grown under standard conditions (37° C., 5% CO2) in Dulbecco's modified Eagles's medium (GIBCO, Grand Island, N.Y.).
as §3, §4, §5

[1] = Rattus norvegicus, Neuron, read-out: IC50 for inhibition of [3H]GABA uptake, Neurons with NNC-711, in the presence of 10 μM NNC-711
[2] = Rattus norvegicus, Neuron, read-out: IC50 for inhibition of [3H]GABA uptake, Neurons, absence of NNC-711
[3] = read-out: IC50 for inhibition of [3H]GABA uptake, Neurons, absence of NNC-711
[4] = COS, read-out: % Inhibition of [3H]GABA uptake, GAT-2
[5] = Rattus norvegicus, Astrocyte, 3 h
[6] = Rattus norvegicus, Astrocyte, 3 h, read-out: IC50 for inhibition of [3H]GABA uptake, O-2A/Type 2 astrocytes with NNC-711, in the presence of 10 μM NNC-711
[7] = Rattus norvegicus, Astrocyte, 3 h, read-out: IC50 for inhibition of [3H]GABA uptake, O-2A/Type 2 astrocytes, absence of NNC-711
[8] = read-out: IC50 for inhibition of [3H]GABA uptake, Neurons with NNC-711, in the presence of 10 μM NNC-711
[9] = read-out: IC50 for inhibition of [3H]GABA uptake, rGAT-3 (Table 8), full competition curves, 50 nM [3H]GABA
[10] = read-out: IC50 for inhibition of [3H]GABA uptake, rGAT-2 (Table 8), full competition curves, 50 nM [3H]GABA
[11] = read-out: IC50 for inhibition of [3H]GABA uptake, O-2A/Type 2 astrocytes with NNC-711, in the presence of 10 μM NNC-711
[12] = read-out: IC50 for inhibition of [3H]GABA uptake, O-2A/Type 2 astrocytes, absence of NNC-711

N[C@@H]1CCC[C@H](C(=O)O)C1 (relative stereo) [ACHC, cis-3-aminocyclohexanecarboxylic acid]
IC50 (neuronal cultures; [1]): 1950 µM
IC50 (neuronal cultures; [2]): ~75 µM
IC50 (neuronal cultures; Rattus norvegicus, read-out: IC50, NNC-711-resistant GABA transport, neuronal cultures, in the presence of 10 μM NNC-711): ~2000 µM
IC50 (neuronal cultures; [3]): 77 ± 8 µM
inhibition at 100 µM (GAT-2; [4]): 3 ± 3%
IC50 (rat GAT-3): 55100 µM
IC50 (rGAT-2): 25900 µM
IC50 (Type 1 astrocytes; [5]): 400 ± 200 µM
IC50 (O-2A/Type 2 astrocytes; [6]): 2360 µM
IC50 (O-2A/Type 2 astrocytes; [7]): ~35 µM
IC50 (O-2A/Type 2 astrocytes; Rattus norvegicus, Astrocyte, read-out: IC50 for GABA transport, O-2A/Type 2 astrocytes, in the presence of 10 μM NNC-711): ~2000 µM

NCCCC(=O)O [GABA, gamma-aminobutyric acid]
VMAX of GABA transport, COS/rB14b (GAT-2) (GAT-2; various concentrations of [3H]GABA, 30 seconds): 2.5±1.2 nmoles/mg protein
IC50 (rat GAT-2): ~5 µM
IC50 (rat GAT-3): 33 ± 10 µM
IC50 (rGAT-2): 17 ± 6 µM

N=C(N)NCCS(=O)(=O)O [GES, guanidinoethanesulfonic acid]
IC50 (neuronal cultures; [8]): 508 ± 60 µM
IC50 (neuronal cultures; [3]): 2110 µM
IC50 (rat GAT-3; [9]): 915 ± 49 µM
IC50 (rGAT-2; [10]): 696 ± 110 µM
IC50 (Type 1 astrocytes): 310 ± 60 µM
IC50 (O-2A/Type 2 astrocytes; [11]): 603 ± 300 µM
IC50 (O-2A/Type 2 astrocytes; [12]): 1560 µM

NCC[C@H](N)C(=O)O [L-DABA, L-(2,4)diaminobutyric acid]
IC50 (neuronal cultures; [1]): 861 ± 225 µM
IC50 (neuronal cultures; [2]): 165 ± 20 µM
inhibition at 100 µM (GAT-2; [4]): 43 ± 8%
IC50 (rat GAT-3): 710 ± 237 µM
IC50 (rGAT-2): 300 ± 51 µM
IC50 (Type 1 astrocytes; [5]): 3460 µM
IC50 (O-2A/Type 2 astrocytes; [6]): 91 ± 30 µM
IC50 (O-2A/Type 2 astrocytes; [7]): 74 µM

O=C(O)C1=CCCN(CCON=C(c2ccccc2)c2ccccc2)C1 [NNC-711]
specific [3H]GABA uptake that persisted, neuronal cultures (neuronal cultures; NNC-711 at 10 μM): 31±1%
IC50 (neuronal cultures; read-out: IC50 for [3H]GABA uptake, neuronal cultures): ~0.3 µM
IC50 (neuronal cultures; [3]): 0.28 ± 0.1 µM
IC50 (rat GAT-2; read-out: IC50 for inhibition of [3H]GABA uptake, rat GAT-2, stable cell line, 50 nM [3H]GABA): 171 ± 53 µM
IC50 (rat GAT-3; [9]): 349 ± 151 µM
IC50 (rat GAT-3; read-out: IC50 for inhibition of [3H]GABA uptake, rat GAT-3, transient transfection, 50 nM [3H]GABA): 349 ± 151 µM
IC50 (rGAT-2; [10]): 729 ± 319 µM
IC50 (Type 1 astrocytes): 2 ± 0.3 µM
specific [3H]GABA uptake that persisted, O-2A/Type 2 astrocytes (O-2A/Type 2 astrocytes; NNC-711 at 10 μM): 26±4%
IC50 (O-2A/Type 2 astrocytes; [12]): 0.07 µM

O=C(O)C1=CCCNC1 [guvacine]
IC50 (neuronal cultures; Rattus norvegicus, Neuron, read-out: IC50 for inhibition of [3H]GABA uptake, Neurons): 14 ± 2 µM
inhibition at 10 µM (GAT-2; [4]): 13 ± 1%
IC50 (rat GAT-3): 378 ± 175 µM
IC50 (rGAT-2): 228 ± 38 µM
IC50 (Type 1 astrocytes; [5]): 23 ± 10 µM
IC50 (O-2A/Type 2 astrocytes; Rattus norvegicus, Astrocyte, 3 h, read-out: IC50 for inhibition of [3H]GABA uptake, O-2A/Type 2 astrocytes): 8 ± 0.9 µM

NCCS(=O)O [hypotaurine]
IC50 (neuronal cultures; [1]): 25 ± 2 µM
IC50 (neuronal cultures; [2]): 742 ± 200 µM
IC50 (rat GAT-3): 73 ± 7 µM
IC50 (rGAT-2): 52 ± 6 µM
IC50 (Type 1 astrocytes; [5]): 69 ± 30 µM
IC50 (O-2A/Type 2 astrocytes; [6]): 29 ± 15 µM
IC50 (O-2A/Type 2 astrocytes; [7]): 620 µM

NCCS(=O)(=O)O [taurine, 2-aminoethanesulfonic acid]
IC50 (rat GAT-3): 2860 µM
IC50 (rGAT-2): 1270 µM
IC50 (O-2A/Type 2 astrocytes; [7]): 13000 µM

NCCC(=O)O [β-alanine]
IC50 (neuronal cultures; [1]): ~50 µM
IC50 (neuronal cultures; [2]): 4060 µM
IC50 (neuronal cultures; Rattus norvegicus, read-out: IC50 for [3H]GABA uptake, neuronal cultures, absence of NNC-711): ~4000 µM
IC50 (neuronal cultures; [8]): 48 ± 10 µM
inhibition at 100 µM (GAT-2; [4]): 86 ± 1%
IC50 (rat GAT-2): 19 ± 7 µM
IC50 (rat GAT-3): 110 ± 40 µM
IC50 (rGAT-2): 66 ± 9 µM
IC50 (Type 1 astrocytes; [5]): 100 ± 30 µM
IC50 (O-2A/Type 2 astrocytes; [6]): ~25 µM
IC50 (O-2A/Type 2 astrocytes; [7]): 2030 µM
IC50 (O-2A/Type 2 astrocytes; Rattus norvegicus, Astrocyte, read-out: IC50 for GABA transport, O-2A/Type 2 astrocytes): ~2000 µM
IC50 (O-2A/Type 2 astrocytes; [11]): 24 ± 8 µM

hydroxynipecotic acid [OH-nipecotic]
IC50 (neuronal cultures; [8]): 304 ± 100 µM
IC50 (neuronal cultures; [3]): 22 ± 2 µM
% Inhibition of [3H]GABA uptake, GAT-2 (GAT-2; inhibitor 10 μM, 50 nM [3H]GABA, 10 minutes, 37° C.): 9 ± 7 (3) %
IC50 (rat GAT-3; [9]): 467 ± 53 µM
IC50 (rGAT-2; [10]): 567 ± 50 µM
IC50 (Type 1 astrocytes): 1610 µM
IC50 (O-2A/Type 2 astrocytes; [11]): 197 ± 20 µM
IC50 (O-2A/Type 2 astrocytes; [12]): 17 ± 3 µM
